Laboratory results as given in patent US7563791B2, “Pyrrolotriazine derivatives useful for treating hyper-proliferative disorders and diseases associated with angiogenesis” (Bayer Pharmaceuticals Corporation, priority 2004, dated 2009).

Test system: VEGF stimulated Phospho-ERK in HUVEC
Assay: Growth factor stimulated p-ERK assay in HUVECs (VEGF stimulation, ERK1/2 Bioplex)
Type: cell-based
Settings: Homo sapiens, compound 2 hrs, then 50 ng/ml VEGF 10 min; for inhibition at 0.1 µM: @ 100 nM
Method: Growth Factor Stimulated p-ERK assay in HUVECs
Exponentially growing human endothelial HUVECs cells (human umbilical vein endothelial cells, cat# CC-2517, Cambrex, Walkersville, Md.) were seeded at twenty five thousand cells/well in 96 well plates in EBM-2 MV medium with growth factors (cat# CC-3202, Cambrex) and grown at 37° C. in 5% CO2. Sixteen hours post-plating, the cells were changed to serum-free medium (RPMI 1640 containing 0.1% BSA (bovine serum albumin) and compounds were added at different concentrations for 2 hrs, after which the cells were stimulated for 10 min with 50 ng/ml of either VEGF (vascular endothelial growth factor, Protein Sciences, Meriden, Conn.) or bFGF (basic fibroblast growth factor cat# PHG0026, Biosource International, Camarillo, Calif.). The rest of the assay was performed per manufacturer indications for the ERK½ Bioplex assay (cat#171-304004, Bio-Rad, Hercules, Calif.). After removing culture medium by aspiration, the cells were quickly rinsed with 100 μl of cell wash buffer A to stop treatment reaction. Eighty microliters of cell lysis buffer were then immediately added to each well of the 96 well plate which was put on ice. Cells in each well were lysed by pipetting up and down 5 times with a multi-channel pipet. The plate was then agitated on a microtiter plate shaker at 300 rpm for 20 min at 4° C. Cellular debris were pelleted by centrifugation at 4500 g for 15 min at 4° C. and the supernatant was collected. Forty five microliters of supernatant was diluted with an equal volume of Bio-Plex phosphoprotein assay Buffer B, The coupled and color coated beads were added into a 96 well filter plate, and the prepared lysates were added. The beads and lysate mixture was incubated at room temperature for 15-18 hrs. The following day, the plate was vacuum-filtered and then washed 3×. Twenty-five microliters of detection antibody solution were added to each well and the plate was then incubated for 30 min at room temperature. The plate was then vaccum-filtered and washed as described previously. Fifty microliters of streptavidin-PE solution was added to each well, the plate was incubated for 10 min at room temperature and then was then vaccum-filtered and washed as described above. One hundred twenty-five microliters of resuspension buffer was added to each well and data were acquired on the Luminex 100 instrument (Bio-Rad).

Compound	inhibition at 0.1 µM	inhibition at 1 µM	inhibition at 10 µM
CCOC(=O)c1cn2ncnc(N)c2c1-c1ccc(NC(=O)Nc2cc(C(F)(F)F)ccc2F)cc1 [Example 1, ethyl 4-amino-5-{4-[({[2-fluoro-5-(trifluoromethyl)phenyl]amino}carbonyl)amino]phenyl}pyrrolo[2,1-f][1,2,4]triazine-6-carboxylate]	> 50%		
CCOC(=O)c1cn2ncnc(N)c2c1-c1ccc(NC(=O)Nc2ccccc2OC(F)(F)F)cc1 [Example 8, ethyl 4-amino-5-{4-[({[2-(trifluoromethoxy)phenyl]amino}carbonyl)amino]phenyl}pyrrolo[2,1-f][1,2,4]triazine-6-carboxylate]	> 50%		
CCOC(=O)c1cn2ncnc(N)c2c1-c1ccc(NC(=O)Nc2cccc(OC(F)(F)F)c2)cc1 [Example 9, ethyl 4-amino-5-{4-[({[3-(trifluoromethoxy)phenyl]amino}carbonyl)amino]phenyl}pyrrolo[2,1-f][1,2,4]triazine-6-carboxylate]	> 50%		
CCOC(=O)c1cn2ncnc(N)c2c1-c1ccc(NC(=O)Nc2ccc(OC(F)(F)F)cc2)cc1 [Example 11, ethyl 4-amino-5-{4-[({[4-(trifluoromethoxy)phenyl]amino}carbonyl)amino]phenyl}pyrrolo[2,1-f][1,2,4]triazine-6-carboxylate]	< 50%	> 50%	
CCOC(=O)c1cn2ncnc(N)c2c1-c1ccc(NC(=O)Nc2ccc3c(cnn3C)c2)cc1 [Example 12]	> 50%		
CCOC(=O)c1cn2ncnc(N)c2c1-c1ccc(NC(=O)Nc2ccc3c(c2)OC(F)(F)O3)cc1 [Example 14, ethyl 4-amino-5-[4-({[(2,2-difluoro-1,3-benzodioxol-5-yl)amino]carbonyl}amino)phenyl]pyrrolo[2,1-f][1,2,4]triazine-6-carboxylate]	< 50%	< 50%	> 50%
CCOC(=O)c1cn2ncnc(N)c2c1-c1ccc(NC(=O)Nc2ccc(Cl)c(Cl)c2)cc1 [Example 18, ethyl 4-amino-S-[4-({[(3,4-dichlorophenyl)amino]carbonyl}amino)phenyl]pyrrolo[2,1-f][1,2,4]triazine-6-carboxylate]	< 50%	< 50%	> 50%
CCOC(=O)c1cn2ncnc(N)c2c1-c1ccc(NC(=O)Nc2ccc3c(c2)OC(F)(F)C(F)(F)O3)cc1 [Example 22, ethyl 4-amino-5-[4-({[(2,2,3,3-tetrafluoro-2,3-dihydro-1,4-benzodioxin-6-yl)amino]carbonyl}amino)phenyl]pyrrolo[2,1-f][1,2,4]triazine-6-carboxylate]	< 50%	> 50%	
CCOC(=O)c1cn2ncnc(N)c2c1-c1ccc(NC(=O)Nc2ccccc2)cc1 [Example 23, ethyl 4-amino-5-{4-[(anilinocarbonyl)amino]phenyl}pyrrolo[2,1-f][1,2,4]triazine-6-carboxylate]	> 50%		
CCOC(=O)c1cn2ncnc(N)c2c1-c1ccc(NC(=O)Nc2ccccc2C(C)C)cc1 [Example 24, ethyl 4-amino-5-[4-({[(2-isopropylphenyl)amino]carbonyl}amino)phenyl]pyrrolo[2,1-f][1,2,4]triazine-6-carboxylate]	< 50%	> 50%	
CCOC(=O)c1cn2ncnc(N)c2c1-c1ccc(NC(=O)Nc2cc(C(F)(F)F)cc(C(F)(F)F)c2)cc1 [Example 26, ethyl 4-amino-5-{4-[({[3,5-bis(trifluoromethyl)phenyl]amino}carbonyl)amino]phenyl}pyrrolo[2,1-f][1,2,4]triazine-6-carboxylate]	< 50%	> 50%	
CCOC(=O)c1cn2ncnc(N)c2c1-c1ccc(NC(=O)Nc2cc(C(F)(F)F)ccc2N2CCOCC2)cc1 [Example 27, ethyl 4-amino-5-{4-[({[2-morpholin-4-yl-5-(trifluoromethyl)phenyl]amino}carbonyl)amino]phenyl}pyrrolo[2,1-f][1,2,4]triazine-6-carboxylate]	> 50%		
CCOC(=O)c1cn2ncnc(N)c2c1-c1ccc(NC(=O)Nc2cc(OC)ncn2)cc1 [Example 29, ethyl 4-amino-5-[4-({[(6-methoxypyrimidin-4-yl)amino]carbonyl}amino)phenyl]pyrrolo[2,1-f][1,2,4]triazine-6-carboxylate]	< 50%	> 50%	
COCCNCc1cn2ncnc(N)c2c1-c1ccc(NC(=O)Nc2cc(C(F)(F)F)ccc2F)cc1 [Example 32, N-[4-(4-amino-6-{[(2-methoxyethyl)amino]methyl}pyrrolo[2,1-f][1,2,4]triazin-5-yl)phenyl]-N′-[2-fluoro-5-(trifluoromethyl)phenyl]urea]	> 50%		
CN(C)CCNCc1cn2ncnc(N)c2c1-c1ccc(NC(=O)Nc2cc(C(F)(F)F)ccc2F)cc1 [Example 37, N-{4-[4-amino-6-({[2-(dimethylamino)ethyl]amino}methyl)pyrrolo[2,1-f][1,2,4]triazin-5-yl]phenyl}-N′-[2-fluoro-5-(trifluoromethyl)phenyl]urea]	< 50%	> 50%	
Nc1ncnn2cc(CNCCC(F)(F)F)c(-c3ccc(NC(=O)Nc4cc(C(F)(F)F)ccc4F)cc3)c12 [Example 39, N-[4-(4-amino-6-{[(3,3,3-trifluoropropyl)amino]methyl}pyrrolo[2,1-f][1,2,4]triazin-5-yl)phenyl]-N′-[2-fluoro-5-(trifluoromethyl)phenyl]urea]	< 50%	> 50%	
COCCN1CCN(Cc2cn3ncnc(N)c3c2-c2ccc(NC(=O)Nc3cc(C(F)(F)F)ccc3F)cc2)CC1 [Example 41, N-[4-(4-amino-6-{[4-(2-methoxyethyl)piperazin-1-yl]methyl}pyrrolo[2,1-f][1,2,4]triazin-5-yl)phenyl]-N′-[2-fluoro-5-(trifluoromethyl)phenyl]urea]	< 50%	> 50%	
Nc1ncnn2cc(CNc3cccnc3)c(-c3ccc(NC(=O)Nc4cc(C(F)(F)F)ccc4F)cc3)c12 [Example 47, N-(4-{4-amino-6-[(pyridin-3-ylamino)methyl]pyrrolo[2,1-f][1,2,4]triazin-5-yl}phenyl)-N′-[2-fluoro-5-(trifluoromethyl)phenyl]urea]	< 50%	> 50%	
CCOC(=O)c1cn2ncnc(N)c2c1-c1ccc(NC(=O)Nc2cc(C(C)(C)C)nn2C)cc1 [Example 49, ethyl 4-amino-5-[4-({[(3-tert-butyl-1-methyl-1H-pyrazol-5-yl)amino]carbonyl}amino)phenyl]pyrrolo[2,1-f][1,2,4]triazine-6-carboxylate]	> 50%		
Nc1ncnn2cc(C(=O)NCCCN3CCCC3)c(-c3ccc(NC(=O)Nc4cc(C(F)(F)F)ccc4F)cc3)c12 [Example 62, 4-amino-5-{4-[({[2-fluoro-5-(trifluoromethyl)phenyl]amino}carbonyl)amino]phenyl}-N-(3-pyrrolidin-1-ylpropyl)pyrrolo[2,1-f][1,2,4]triazine-6-carboxamide]	< 50%	< 50%	> 50%
Nc1ncnn2cc(CCCN3CCOCC3)c(-c3ccc(NC(=O)Nc4cc(C(F)(F)F)ccc4F)cc3)c12 [Example 66, N-{4-[4-amino-6-(3-morpholin-4-ylpropyl)pyrrolo[2,1-f][1,2,4]triazin-5-yl]phenyl}-N′-[2-fluoro-5-(trifluoromethyl)phenyl]urea]	< 50%	> 50%	
CC(C)(C)NC(=O)c1cn2ncnc(N)c2c1-c1ccc(NC(=O)Nc2cc(C(F)(F)F)ccc2F)cc1 [Example 75, 4-amino-N-(tert-butyl)-5-{4-[({[2-fluoro-5-(trifluoromethyl)phenyl]amino}carbonyl)amino]phenyl}pyrrolo[2,1-f][1,2,4]triazine-6-carboxamide]	< 50%	> 50%	
Cc1cn2ncnc(N)c2c1-c1ccc(NC(=O)Nc2cc(C(F)(F)F)ccc2F)cc1 [Example 85, N-[4-(4-amino-6-methylpyrrolo[2,1-f][1,2,4]triazin-5-yl)phenyl]-N′-[2-fluoro-5-(trifluoromethyl)phenyl]urea]	< 50%	> 50%	
CCOC(=O)c1cn2ncnc(N)c2c1-c1ccc(NC(=O)Nc2ccc(OC)c(CN3CCOCC3)c2)cc1 [Example 96, ethyl 4-amino-5-{4-[({[4-methoxy-3-(morpholin-4-ylmethyl)phenyl]amino}carbonyl)amino]phenyl}pyrrolo[2,1-f][1,2,4]triazine-6-carboxylate]	< 50%	< 50%	> 50%
